Results published in ChEMBL document CHEMBL1201862, “PubChem BioAssay data set” (2004).
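Step 1: Grow cells in 96-well plates. Step 2: Expose to compound for 48 hours at 5 concentrations. Step 3: Interpolate endpoints linearly; if unreached, use highest concentration. At the GI50, growth is halved.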 Calls of active or inactive are those of the source. Rule as the data show it: active = GI50 up to about 1.1 µM and inactive = higher.

Tests used:
Test in all cases: NCI-60 cell line screen, 48 h
KM12 = tested on: KM12
UO-31 = tested on: UO-31
HCT-116 = tested on: HCT-116
RXF 393 = tested on: RXF 393
SR = tested on: SR
CCRF-CEM = tested on: CCRF-CEM
SF-268 = tested on: SF-268
RPMI-8226 = tested on: RPMI-8226
EKVX = tested on: EKVX
HOP-62 = tested on: HOP-62
UACC-257 = tested on: UACC-257
LOX IMVI = tested on: LOX IMVI
HT-29 = tested on: HT-29
NCI-H460 = tested on: NCI-H460
A498 = tested on: A498
COLO 205 = tested on: COLO 205
HL-60 = tested on: HL-60
SK-MEL-5 = tested on: SK-MEL-5
SN12C = tested on: SN12C
NCI-H522 = tested on: NCI-H522

Measured: GI50

Clc1ccc(C2Nc3ccccc3C3=NCCN32)cc1 (centres undefined)
inactive: KM12 18.3 µM | UO-31 27.3 µM | HCT-116 12.4 µM | RXF 393 21.1 µM | SR 21 µM | CCRF-CEM 28.4 µM | SF-268 20.7 µM | RPMI-8226 15.9 µM | EKVX 25.6 µM | HOP-62 23.4 µM | UACC-257 17.5 µM | LOX IMVI 17.2 µM | HT-29 11.4 µM | NCI-H460 16.3 µM | A498 22.9 µM | COLO 205 13 µM | HL-60 22.1 µM | SK-MEL-5 15.7 µM | SN12C 29.8 µM

CO[C@H]1O[C@@H]2CO[C@@H](c3ccccc3)O[C@H]2C[C@]12CCC/C=C\CO2
inactive: KM12 29.5 µM | UO-31 14.3 µM | HCT-116 12.7 µM | RXF 393 13.9 µM | SR 13.7 µM | CCRF-CEM 10.4 µM | SF-268 14.4 µM | EKVX 11.6 µM | HOP-62 16.9 µM | UACC-257 22.2 µM | LOX IMVI 12.6 µM | HT-29 17.7 µM | NCI-H460 47.4 µM | A498 14 µM | COLO 205 13.9 µM | HL-60 15.9 µM | NCI-H522 11.5 µM | SK-MEL-5 17.5 µM | SN12C 14.8 µM

CCn1cc2c(=O)n3ncn(-c4ccc(Br)cc4)c3nc2n1
inactive: KM12 > 100 µM | UO-31 > 100 µM | HCT-116 > 100 µM | RXF 393 > 100 µM | SR > 100 µM | CCRF-CEM > 100 µM | SF-268 > 100 µM | RPMI-8226 40.3 µM | EKVX > 100 µM | HOP-62 38.5 µM | UACC-257 > 100 µM | HT-29 > 100 µM | A498 > 100 µM | COLO 205 > 100 µM | HL-60 > 100 µM | NCI-H522 > 100 µM | SK-MEL-5 > 100 µM | SN12C > 100 µM

CCc1cccc(C)c1NC(=O)C(=O)Cc1nc2ccccc2s1
inactive: KM12 > 100 µM | UO-31 > 100 µM | HCT-116 > 100 µM | RXF 393 > 100 µM | SR > 100 µM | CCRF-CEM > 100 µM | SF-268 > 100 µM | EKVX > 100 µM | UACC-257 > 100 µM | HT-29 > 100 µM | NCI-H460 > 100 µM | A498 > 100 µM | COLO 205 > 100 µM | HL-60 > 100 µM | NCI-H522 > 100 µM | SK-MEL-5 > 100 µM | SN12C > 100 µM

N=C(N)N1CCC(N2CCOCC2)CC1
inactive: KM12 > 100 µM | UO-31 > 100 µM | HCT-116 > 100 µM | RXF 393 > 100 µM | SR > 100 µM | CCRF-CEM > 100 µM | SF-268 > 100 µM | RPMI-8226 > 100 µM | EKVX > 100 µM | HOP-62 > 100 µM | UACC-257 > 100 µM | HT-29 > 100 µM | NCI-H460 > 100 µM | A498 > 100 µM | COLO 205 > 100 µM | HL-60 > 100 µM | SK-MEL-5 > 100 µM | SN12C > 100 µM

BrC(=C(c1ccc(OC2CCCCO2)cc1)c1ccc(OC2CCCCO2)cc1)c1ccccc1 (centres undefined)
inactive: KM12 > 100 µM | UO-31 > 100 µM | HCT-116 > 100 µM | RXF 393 > 100 µM | SR > 100 µM | CCRF-CEM > 100 µM | SF-268 > 100 µM | RPMI-8226 > 100 µM | EKVX > 100 µM | HOP-62 > 100 µM | UACC-257 > 100 µM | LOX IMVI > 100 µM | HT-29 > 100 µM | NCI-H460 > 100 µM | A498 > 100 µM | COLO 205 > 100 µM | HL-60 > 100 µM | SN12C > 100 µM

Cc1ccc(Sc2ccccc2C23OC(C)(C4C(=O)N(c5ccccc5)C(=O)C42)N(C)C3=O)cc1 (centres undefined)
inactive: KM12 > 100 µM | UO-31 > 100 µM | HCT-116 > 100 µM | RXF 393 85.7 µM | SR > 100 µM | CCRF-CEM > 100 µM | SF-268 > 100 µM | EKVX > 100 µM | UACC-257 > 100 µM | LOX IMVI > 100 µM | HT-29 > 100 µM | NCI-H460 > 100 µM | A498 86.9 µM | COLO 205 > 100 µM | HL-60 > 100 µM | NCI-H522 > 100 µM | SK-MEL-5 > 100 µM | SN12C 90.2 µM

COc1cccc2cc(C(N)=O)c(=N)oc12
inactive: KM12 42.6 µM | HCT-116 28.6 µM | RXF 393 70.5 µM | SR 58.2 µM | CCRF-CEM 40.6 µM | SF-268 51.1 µM | RPMI-8226 90.2 µM | EKVX 29.2 µM | UACC-257 > 100 µM | LOX IMVI 30.7 µM | HT-29 48.4 µM | NCI-H460 37.2 µM | A498 > 100 µM | COLO 205 49.4 µM | HL-60 58.7 µM | SK-MEL-5 49.2 µM | SN12C 39.4 µM
